Assay results from patent US20100041892A1, “Therapeutic agent for diabetes” (priority 2005, published 2010).

SMILES | melting point
CCCCCS(=O)(=O)NC(=O)/C=C/c1ccc(OCC2CCCO2)cc1Oc1ncc(C(F)(F)F)cc1Cl (centres unmarked) [Example 195, (2E)-3-[2-{[3-chloro-5-(trifluoromethyl)pyridin-2-yl]oxy}-4-(tetrahydrofuran-2-ylmethoxy)phenyl]-N-(pentylsulfonyl)acrylamide] | 126.5 to 128.5 °C
COCOc1cc(/C=C/S(=O)(=O)NC(=O)OC(C)(C)C)n(Cc2ccc(Cl)cc2Cl)n1 [Example 200, tert-butyl-({(E)-2-[1-(2,4-dichlorobenzyl)-3-(methoxymethoxy)-1H-pyrazol-5-yl]vinyl}sulfonyl)carbamate] | 139 to 140 °C
CCCCCS(=O)(=O)NC(=O)CCc1ccc(OCCOC)cc1Oc1ccccc1 [Example 219, 3-[4-(2-methoxyethoxy)-2-phenoxyphenyl]-N-(pentylsulfonyl)propanamide] | 70.4 to 70.5 °C
COCCOc1ccc(/C=C/C(=O)NS(=O)(=O)NCCc2ccccc2)c(Oc2ncc(C(F)(F)F)cc2Cl)c1 [Example 228, (2E)-3-[2-{[3-chloro-5-(trifluoromethyl)pyridin-2-yl]oxy}-4-(2-methoxyethoxy)phenyl]-N-{[(2-phenylethyl)amino]sulfonyl}acrylamide] | 85 to 85.5 °C
COCCOc1ccc(/C=C/C(=O)NS(=O)(=O)c2ccc(Cl)cc2)c(Oc2ncc(C(F)(F)F)cc2Cl)c1 [Example 229, (2E)-N-[(4-chlorophenyl)sulfonyl]-3-[2-{[3-chloro-5-(trifluoromethyl)pyridin-2-yl]oxy}-4-(2-methoxyethoxy)phenyl]acrylamide] | 182 to 182.5 °C
COCCOc1ccc(/C=C(\C)C(=O)NS(=O)(=O)c2ccc(Cl)cc2)c(Oc2ncc(C(F)(F)F)cc2Cl)c1 [Example 230, (2E)-N-[(4-chlorophenyl)sulfonyl]-3-[2-{[3-chloro-5-(trifluoromethyl)pyridin-2-yl]oxy}-4-(2-methoxyethoxy)phenyl]-2-methylacrylamide] | 145.7 to 145.8 °C
COCCOc1ccc(/C=C/C(=O)NS(=O)(=O)c2cccc(Cl)c2)c(Oc2ncc(C(F)(F)F)cc2Cl)c1 [Example 232, (2E)-N-[(3-chlorophenyl)sulfonyl]-3-[2-{[3-chloro-5-(trifluoromethyl)pyridin-2-yl]oxy}-4-(2-methoxyethoxy)phenyl]acrylamide] | 157 to 158 °C
COCCOc1ccc(/C=C/C(=O)NS(=O)(=O)c2ccc(C(F)(F)F)cc2)c(Oc2ncc(C(F)(F)F)cc2Cl)c1 [Example 234, (2E)-3-[2-{[3-chloro-5-(trifluoromethyl)pyridin-2-yl]oxy}-4-(2-methoxyethoxy)phenyl]-N-{[4-(trifluoromethyl)phenyl]sulfonyl}acrylamide] | 186.3 to 186.5 °C
COCCOc1ccc(/C=C/C(=O)NS(=O)(=O)c2ccccc2Cl)c(Oc2ncc(C(F)(F)F)cc2Cl)c1 [Example 235, (2E)-N-[(2-chlorophenyl)sulfonyl]-3-[2-{[3-chloro-5-(trifluoromethyl)pyridin-2-yl]oxy}-4-(2-methoxyethoxy)phenyl]acrylamide] | 168 to 169 °C
COCCOc1ccc(/C=C/C(=O)NS(=O)(=O)c2ccc(C)cc2)c(Oc2ncc(C(F)(F)F)cc2Cl)c1 [Example 236, (2E)-3-[2-{[3-chloro-5-(trifluoromethyl)pyridin-2-yl]oxy}-4-(2-methoxyethoxy)phenyl]-N-[(4-methylphenyl)sulfonyl]acrylamide] | 102.5 to 106.5 °C
COCCOc1ccc(/C=C/C(=O)NS(=O)(=O)c2ccc(F)cc2)c(Oc2ncc(C(F)(F)F)cc2Cl)c1 [Example 237, (2E)-3-[2-{[3-chloro-5-(trifluoromethyl)pyridin-2-yl]oxy}-4-(2-methoxyethoxy)phenyl]-N-[(4-fluorophenyl)sulfonyl]acrylamide] | 183 to 184 °C
COCCOc1ccc(/C=C/C(=O)NS(=O)(=O)c2ccccn2)c(Oc2ncc(C(F)(F)F)cc2Cl)c1 [Example 239, (2E)-3-[2-{[3-chloro-5-(trifluoromethyl)pyridin-2-yl]oxy}-4-(2-methoxyethoxy)phenyl]-N-(pyridin-2-ylsulfonyl)acrylamide] | 164 to 165 °C
COCCOc1ccc(/C=C/C(=O)NS(=O)(=O)c2cccnc2)c(Oc2ncc(C(F)(F)F)cc2Cl)c1 [Example 240, (2E)-3-[2-{[3-chloro-5-(trifluoromethyl)pyridin-2-yl]oxy}-4-(2-methoxyethoxy)phenyl]-N-(pyridin-3-ylsulfonyl)acrylamide] | 165 to 167 °C
COCCOc1ccc(/C=C/C(=O)NS(=O)(=O)c2cccc(C)c2)c(Oc2ncc(C(F)(F)F)cc2Cl)c1 [Example 241, (2E)-3-[2-{[3-chloro-5-(trifluoromethyl)pyridin-2-yl]oxy}-4-(2-methoxyethoxy)phenyl]-N-[(3-methylphenyl)sulfonyl]acrylamide] | 147 to 147.5 °C

Continued, values first:

melting point | SMILES
141 to 144 °C | CCCCCS(=O)(=O)NC(=O)/C=C/c1ccc(OCCOC(C)=O)cc1Oc1ncc(C(F)(F)F)cc1Cl [Example 194, 2-(3-{[3-chloro-5-(trifluoromethyl)pyridin-2-yl]oxy}-4-{(1E)-3-oxo-3-[(pentylsulfonyl)amino]prop-1-en-1-yl}phenoxy)ethyl acetate]
114 to 115 °C | COCCCS(=O)(=O)NC(=O)CCc1ccc(OC(C)C)cc1Oc1ncc(C(F)(F)F)cc1Cl [Example 202, 3-(2-{[3-chloro-5-(trifluoromethyl)pyridin-2-yl]oxy}-4-isopropoxyphenyl)-N-[(3-methoxypropyl)sulfonyl]propanamide]
123 to 123.5 °C | COCCOc1ccc(CCCOC(=O)NS(=O)(=O)NCCC(C)C)c(Oc2ncc(C(F)(F)F)cc2Cl)c1 [Example 203, 3-[2-{[3-chloro-5-(trifluoromethyl)pyridin-2-yl]oxy}-4-(2-methoxyethoxy)phenyl]propyl {[(3-methylbutyl)amino]sulfonyl}carbamate]
110 to 113 °C | COCCOc1ccc(CCCOC(=O)NS(=O)(=O)NCCc2ccccc2)c(Oc2ncc(C(F)(F)F)cc2Cl)c1 [Example 206, 3-[2-{[3-chloro-5-(trifluoromethyl)pyridin-2-yl]oxy}-4-(2-methoxyethoxy)phenyl]propyl {[(2-phenylethyl)amino]sulfonyl}carbamate]
102 to 103 °C | CCCCN(C(=O)CCc1ccc(OCCOC)cc1Oc1ncc(C(F)(F)F)cc1Cl)S(N)(=O)=O [Example 212, N-(aminosulfonyl)-N-butyl-3-[2-{[3-chloro-5-(trifluoromethyl)pyridin-2-yl]oxy}-4-(2-methoxyethoxy)phenyl]propanamide]
101 to 101.1 °C | COCCOc1ccc(CCC(=O)N(CCOC)S(N)(=O)=O)c(Oc2ncc(C(F)(F)F)cc2Cl)c1 [Example 213, N-(aminosulfonyl)-3-[2-{[3-chloro-5-(trifluoromethyl)pyridin-2-yl]oxy}-4-(2-methoxyethoxy)phenyl]-N-(2-methoxyethyl)propanamide]
120 to 122 °C | CCCCCNS(=O)(=O)NC(=O)/C=C/c1ccc(OCCOC)cc1Oc1ncc(C(F)(F)F)cc1Cl [Example 215, (2E)-3-[2-{[3-chloro-5-(trifluoromethyl)pyridin-2-yl]oxy}-4-(2-methoxyethoxy)phenyl]-N-[(pentylamino)sulfonyl]acrylamide]
147 to 147.5 °C | C/C(=C\c1ccc(OC(C)C)cc1Oc1ncc(C(F)(F)F)cc1Cl)C(=O)NS(=O)(=O)NCCc1ccccc1 [Example 220, (2E)-3-(2-{[3-chloro-5-(trifluoromethyl)pyridin-2-yl]oxy}-4-isopropoxyphenyl)-2-methyl-N-{[(2-phenylethyl)amino]sulfonyl}acrylamide]
120 to 121 °C | COCCCNS(=O)(=O)NC(=O)/C(C)=C/c1ccc(OC(C)C)cc1Oc1ncc(C(F)(F)F)cc1Cl [Example 221, (2E)-3-(2-{[3-chloro-5-(trifluoromethyl)pyridin-2-yl]oxy}-4-isopropoxyphenyl)-N-{[(3-methoxypropyl)amino]sulfonyl}-2-methylacrylamide]
137.5 to 137.7 °C | C/C(=C\c1ccc(OC(C)C)cc1Oc1ncc(C(F)(F)F)cc1Cl)C(=O)NS(=O)(=O)NCCOC(C)C [Example 222, (2E)-3-(2-{[3-chloro-5-(trifluoromethyl)pyridin-2-yl]oxy}-4-isopropoxyphenyl)-N-{[(2-isopropoxyethyl)amino]sulfonyl}-2-methylacrylamide]
121 to 122 °C | COCCCNS(=O)(=O)NC(=O)/C(C)=C/c1ccc(OCCOC)cc1Oc1ncc(C(F)(F)F)cc1Cl [Example 227, (2E)-3-[2-{[3-chloro-5-(trifluoromethyl)pyridin-2-yl]oxy}-4-(2-methoxyethoxy)phenyl]-N-{[(3-methoxypropyl)amino]sulfonyl}-2-methylacrylamide]
125.3 to 126.5 °C | C/C(=C\c1ccc(OC(C)C)cc1Oc1ncc(C(F)(F)F)cc1Cl)C(=O)NS(=O)(=O)NCC1CCCO1 (centres unmarked) [Example 231, (2E)-3-(2-{[3-chloro-5-(trifluoromethyl)pyridin-2-yl]oxy}-4-isopropoxyphenyl)-2-methyl-N-{[(tetrahydrofuran-2-ylmethyl)amino]sulfonyl}acrylamide]
125.5 to 128 °C | COCCOc1ccc(/C=C/C(=O)NS(=O)(=O)C(F)(F)F)c(Oc2ncc(C(F)(F)F)cc2Cl)c1 [Example 243, (2E)-3-[2-{[3-chloro-5-(trifluoromethyl)pyridin-2-yl]oxy}-4-(2-methoxyethoxy)phenyl]N-[(trifluoromethyl)sulfonyl]acrylamide]
159 to 159.5 °C | COCCOc1ccc(/C=C(\C)C(=O)NS(=O)(=O)CC(F)(F)F)c(Oc2ncc(C(F)(F)F)cc2Cl)c1 [Example 244, (2E)-3-[2-{[3-chloro-5-(trifluoromethyl)pyridin-2-yl]oxy}-4-(2-methoxyethoxy)phenyl]-2-methyl-N-[(2,2,2-trifluoroethyl)sulfonyl]acrylamide]
146 to 147 °C | COCCOc1ccc(/C=C(\C)C(=O)NS(=O)(=O)C(F)(F)F)c(Oc2ncc(C(F)(F)F)cc2Cl)c1 [Example 245, (2E)-3-[2-{[3-chloro-5-(trifluoromethyl)pyridin-2-yl]oxy}-4-(2-methoxyethoxy)phenyl]-2-methyl-N-[(trifluoromethyl)sulfonyl]acrylamide]
